Read-outs that look alike come from different tables or passages of the source. *1 amine or outer side, *2 acyl side, *3 side chain or, on linkers, in order; H or OH if unused. Where a SMILES comes first, the peptide text is derived from it. Where no end group is shown, it is not given here. [ ]: non-standard residue; d: D form. The star is where a group is joined. Acca(2-Et,1R,2R) = CC[C@@H]1C[C@]1(N)C(=O)O; CH2(1-naphthyl) = c1ccc2c(C*)cccc2c1; mXylylene = c1cc(C[*:1])cc(C[*:2])c1; oXylylene = c1ccc(C[*:2])c(C[*:1])c1; Hyp = O=C(O)[C@@H]1C[C@@H](O)CN1; Chg = N[C@H](C(=O)O)C1CCCCC1; Tle = CC(C)(C)[C@H](N)C(=O)O; Pip = O=C(O)[C@@H]1CCCCN1; Nva = CCC[C@H](N)C(=O)O; Abu = CC[C@H](N)C(=O)O; Meb = Cc1ccc(C*)cc1
How the values were obtained:
[1] = biological target: T1, recombinant HCV NS3 protease type 1b (Hepatitis C virus genotype 1b, UniProt P26663); assay: Recombinant HCV NS3 protease radiometric assay; assay type: biochemical, HCV genotype 1b
T1 construct: recombinant HCV NS3 protease (amino acid 1027 to 1206) was cloned in the pET11d bacterial expression vector; made in house; host or cells: E. coli BL21(DE3)pLysS
T1 sequence (P26663 1027-1206): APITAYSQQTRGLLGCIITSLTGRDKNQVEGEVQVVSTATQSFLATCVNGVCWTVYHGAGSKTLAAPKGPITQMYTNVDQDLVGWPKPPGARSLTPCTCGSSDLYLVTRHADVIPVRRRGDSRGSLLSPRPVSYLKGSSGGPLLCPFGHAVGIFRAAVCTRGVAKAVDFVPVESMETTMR
Source text: Cloning, Expression and Purification of the Recombinant HCV NS3 Protease type 1b.
Serum from an HCV-infected patient was obtained through an external collaboration (Bernard Willems MD, Hôpital St-Luc. Montréal. Canada and Dr. Donald Murphy, Laboratoire de Santé Publique du Québec, Ste-Anne de Bellevue, Canada). An engineered full-length cDNA template of the HCV genome was constructed from DNA fragments obtained by reverse transcription-PCR (RT-PCR) of serum RNA and using specific primers selected on the basis of homology between other genotype 1b strains. From the determination of the entire genomic sequence, a genotype 1b was assigned to the HCV isolate according to the classification of Simmonds et al. (J. Clin. Microbiol., (1993), 31, p.1493-1503). […] A DNA fragment encoding the polyprotein precursor (NS3/NS4A/NS4B/NS5A/NS5B) was generated by PCR and introduced into eukaryotic expression vectors. […] The mature NS3 protein was not observed with expression of a polyprotein precursor containing the mutation S1165A, which inactivates the NS3 protease, confirming the functionality of the HCV NS3 protease.
The DNA fragment encoding the recombinant HCV NS3 protease (amino acid 1027 to 1206) was cloned in the pET11d bacterial expression vector. The NS3 protease expression in E. coli BL21(DE3)pLysS was induced by incubation with 1 mM IPTG for 3 h at 22° C. A typical fermentation (18 L) yielded approximately 100 g of wet cell paste. The cells were resuspended in lysis buffer (3.0 mL/g) consisting of 25 mM sodium phosphate, pH 7.5, 10% glycerol (v/v), 1 mM EDTA, 0.01% NP-40 and stored at −80° C. Cells were thawed and homogenized following the addition of 5 mM DTT. Magnesium chloride and DNase were then added to the homogenate at final concentrations of 20 mM and 20 μg/mL respectively. After a 25 min incubation at 4° C., the homogenate was sonicated and centrifuged at 15000×g for 30 min at 4° C. The pH of the supernatant was then adjusted to 6.5 using a 1 M sodium phosphate solution.
An additional gel filtration chromatography step was added to the 2 step purification procedure described in WO 95/22985 (incorporated herein by reference). Briefly, the supernatant from the bacterial extract was loaded on a SP HiTrap column (Pharmacia) previously equilibrated at a flow rate of 2 mL/min in buffer A (50 mM sodium phosphate. pH 6.5, […], 1 mM EDTA, 5 mM DTT, 0.01% NP-40). The column was then washed with buffer A containing 0.15 M NaCl and the protease eluted by applying 10 column volumes of a linear 0.15 to 0.3 M NaCl gradient. NS3 protease-containing fractions were pooled and diluted to a final NaCl concentration of 0.1 M. The enzyme was further purified on a HiTrap Heparin column (Pharmacia) equilibrated in buffer B (25 mM sodium phosphate, pH 7.5, 10% glycerol, 5 mM DTT, 0.01% NP-40). The sample was loaded at a flow rate of 3 mL/min. The column was then washed with buffer B containing 0.15 M NaCl at a flow rate of 1.5 mL/min. Two step washes were performed in the presence of buffer B containing 0.3 or 1 M NaCl. The protease was recovered in the 0.3M NaCl wash, diluted 3-fold with buffer B, reapplied on the HiTrap Heparin column and eluted with buffer B containing 0.4 M NaCl. Finally, the NS3 protease-containing fractions were applied on a Superdex 75 HiLoad 16/60 column (Pharmacia) equilibrated in buffer B containing 0.3 M NaCl. The purity of the HCV NS3 protease obtained from the pooled tractions was judged to be greater than 95% by SDS-PAGE followed by densitometry analysis.
The enzyme was stored at −80° C. and was thawed on ice and diluted just prior to use.
Recombinant HCV NS3 Protease Radiometric Assay
The substrate used for the HCV NS3 protease radiometric assay, DDIVPC-SMSYTW [SEQ. ID NO. 2], is cleaved between the cysteine and the serine residues by the enzyme. The sequence DDIVPC-SMSYTW [SEQ. ID NO. 2] corresponds to the NS5A/NS5B natural cleavage site in which the cysteine residue in P2 has been substituted for a proline. […]

[2] = biological target: T2, HCV NS3 protease type 1b/NS4A cofactor peptide (Hepatitis C virus genotype 1b, UniProt P26663); assay: Recombinant HCV NS3 protease/NS4A cofactor peptide radiometric assay; assay type: biochemical, HCV genotype 1b
T2 construct: recombinant HCV NS3 protease (amino acid 1027 to 1206) was cloned in the pET11d bacterial expression vector; made in house; host or cells: E. coli BL21(DE3)pLysS
T2 sequence (P26663 1027-1206, other chains not shown): as the sequence (P26663 1027-1206) above
Protocol: Recombinant HCV NS3 Protease/NS4A Cofactor Peptide Radiometric Assay.
The enzyme was stored at −80° C., thawed on ice and diluted just prior to use in the assay buffer containing the NS4A cofactor peptide.
The substrate used for the NS3 protease/NS4A cofactor peptide radiometric assay, DDIVPC-SMSYTW [SEQ. ID NO. 2], is cleaved between the cysteine and the serine residues by the enzyme. The sequence DDIVPC-SMSYTW [SEQ. ID NO. 2] corresponds to the NS5A/NS5B natural cleavage site in which the cysteine residue in P2 has been substituted for a proline. The peptide substrate DDIVPC-SMSYTW [SEQ. ID NO. […] ID NO. […] [SEQ. ID NO. 5] (molar ratio enzyme: cofactor 1:100) in the absence or presence of inhibitors. The separation of substrate from products is performed by adding avidin-coated agarose beads to the assay mixture followed by filtration. […] ID NO. 4] product found in the filtrate allows for the calculation of the percentage of substrate conversion and of the percentage of inhibition.
Tris and Tris-HCl (UltraPure) were obtained from Gibco-BRL. Glycerol (UltraPure), MES and BSA were purchased from Sigma. TCEP was obtained from Pierce, DMSO from Aldrich and NaOH from Anachemia.
Assay buffer: 50 mM Tris HCl, pH 7.5, 30% (w/v) glycerol, 1 mg/mL BSA, 1 mM TCEP (TCEP added just prior to use from a 1 M stock solution in water).
Substrate: […] [SEQ. ID NO.
ID NO. 3] (˜1 nM final concentration).
The assay was performed in a 96-well polypropylene plate from Costar. Each well contained:
20 μL substrate/tracer in assay buffer;
10 μL±inhibitor in 20% DMSO/assay buffer;
10 μL NS3 protease 1b/NS4 cofactor peptide (molar ratio 1:100).
Blank (no inhibitor and no enzyme) and control (no inhibitor) were also prepared on the same assay plate.
The enzymatic reaction was initiated by the addition of the enzyme/NS4A peptide solution and the assay mixture was incubated for 40 min at 23° C. under gentle agitation. Ten (10) μL of 0.5N NaOH were added and 10 μL 1 M MES, pH 5.8 were added to quench the enzymatic reaction.
Twenty (20) μL of avidin-coated agarose beads (purchased from Pierce) were added in a Millipore MADP N65 filtration plate. The quenched assay mixture was transferred to the filtration plate, and incubated for 60 min at 23° C. under gentle agitation.
The plates were filtered using a Millipore MultiScreen Vacuum Manifold Filtration apparatus, and 40 μL of the filtrate was transferred in an opaque 96-well plate containing 60 μL of scintillation fluid per well.
The % inhibition was calculated with the following equation:
100-[(countsinh-countsblank)/(countsctl-countsblank)×100]

[3] = biological target: T3, human leukocyte elastase (Homo sapiens, UniProt P08246); assay: Specificity assay: human leukocyte elastase; assay type: biochemical
T3 sequence (P08246 30-267): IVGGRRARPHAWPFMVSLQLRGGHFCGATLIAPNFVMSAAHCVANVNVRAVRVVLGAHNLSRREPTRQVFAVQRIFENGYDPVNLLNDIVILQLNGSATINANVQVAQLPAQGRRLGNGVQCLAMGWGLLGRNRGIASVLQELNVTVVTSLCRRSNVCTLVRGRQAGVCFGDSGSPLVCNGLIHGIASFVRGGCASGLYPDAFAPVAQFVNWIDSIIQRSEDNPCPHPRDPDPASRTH
Protocol: The final conditions for each assay were as follows:
[100 μM Succ-AAPF-pNA [SEQ. ID NO.
The percentage of inhibition was calculated using the formula:
[1-((UVinn-UVblank)/(UVctl-UVblank))]×100

Compound | IC50 [1] [µM] | further results
CC[C@H](NC(=O)[C@@H](NC(=O)[C@@H](NC(=O)[C@H](CC(=O)O)NC(=O)[C@H](CC(=O)O)NC(C)=O)[C@@H](C)CC)C(C)C)C(=O)N[C@@H](CS)C(=O)O [compound 115] (Ac-DDIV[Abu]C-OH; C-terminus assumed) | 58 | –
CC(=O)N[C@H](C(=O)N[C@H](C(=O)N1C[C@H](Oc2ccc(Br)cc2)C[C@H]1C(=O)NC1(C(=O)O)CC1)C(C)C)C1CCCCC1 [compound 238] | – | IC50 ([2]; IC50, Table 2, unmarked values: NS3 protease/NS4A cofactor peptide radiometric assay): 27 µM; IC50 ([3]; Table 2, human leukocyte elastase, read-out: HLE): 195 µM
CC[C@@H]1C[C@]1(NC(=O)[C@@H]1C[C@@H](OCc2cccc3ccccc23)CN1C(=O)[C@@H](NC(=O)[C@@H](NC(C)=O)C1CCCCC1)C(C)C)C(=O)O [compound 513] | – | fold more potent than the corresponding 1S,2S isomer ([2]; 1R,2R isomer (513) versus 1S,2S isomer (514)): 25 fold; IC50 ([2]; IC50 (μM), Table 5, first line of the cell, NS3 protease/NS4A cofactor peptide radiometric assay (Example 38)): 1.66 µM; IC50 ([2]; text b180, values of Table 5, 1R,2R versus 1S,2S isomer at P1, read-out: IC50): 1.6 µM; IC50 [3]: > 300 µM
CC[C@H](C)[C@H](NC(=O)[C@H](CC(=O)O)NC(=O)[C@H](CC(=O)O)NC(C)=O)C(=O)N[C@H](C(=O)N1CCC[C@H]1C(=O)N[C@@H](CS)C(=O)O)C1CCCCC1 [compound 114] (Ac-DDI[Chg]PC-OH; C-terminus assumed) | 50 | –
CC[C@@H]1C[C@]1(NC(=O)[C@@H]1C[C@@H](OCc2cccc3ccccc23)CN1C(=O)[C@@H](NC(=O)[C@@H](NC(=O)[C@H](NC(=O)[C@H](CC(=O)O)NC(C)=O)C(C)C)C1CCCCC1)C(C)C)C(=O)O [compound 521] (Ac-D[dV][Chg]V[Hyp](CH2(1-naphthyl))[Acca(2-Et,1R,2R)]-OH) | – | IC50 ([2]; Table 5, first line of the cell, NS3 protease/NS4A cofactor peptide radiometric assay (Example 38), read-out: IC50): 0.024 µM; IC50 [3]: > 300 µM
CC(=O)N[C@@H](CC(=O)O)C(=O)N[C@@H](CC(=O)O)C(=O)N[C@H](C(=O)N[C@H](C(=O)N1CCC[C@H]1C(=O)N[C@@H](CS)C(=O)O)C(C)C)C1CCCCC1 [compound 110] (Ac-DD[Chg]VPC-OH; C-terminus assumed) | 24 | –
Ac-DDIVAC [compound 120] | 76 | –
CCC[C@H](NC(=O)[C@@H]1CCCN1C(=O)[C@@H](NC(=O)[C@@H](NC(=O)[C@@H](NC(=O)[C@H](CC(=O)O)NC(C)=O)C(C)(C)C)[C@@H](C)CC)C(C)C)C(=O)O [compound 129] (Ac-D[Tle]IVP[Nva]-OH; C-terminus assumed) | 270 | –
CCC[C@H](NC(=O)[C@@H]1C[C@@H](OCc2ccc(C)cc2)CN1C(=O)[C@@H](NC(=O)[C@@H](NC(=O)[C@H](CC(=O)O)NC(=O)[C@H](CC(=O)O)NC(C)=O)[C@@H](C)CC)C(C)C)C(=O)O [compound 206] (Ac-DDIV[Hyp](Meb)[Nva]-OH) | 6.4 | –
CCC[C@H](NC(=O)[C@@H]1C[C@@H](OCc2ccccc2C)CN1C(=O)[C@@H](NC(=O)[C@@H](NC(=O)[C@H](CC(=O)O)NC(=O)[C@H](CC(=O)O)NC(C)=O)[C@@H](C)CC)C(C)C)C(=O)O [compound 204] (Ac-DDIV[Hyp](oXylylene)[Nva]-OH; C-terminus assumed) | 9.4 | –
CCC[C@H](NC(=O)[C@@H]1CCCCN1C(=O)[C@@H](NC(=O)[C@@H](NC(=O)[C@H](CC(=O)O)NC(=O)[C@H](CC(=O)O)NC(C)=O)[C@@H](C)CC)C(C)C)C(=O)O [compound 127] (Ac-DDIV[Pip][Nva]-OH; C-terminus assumed) | 605 | –
Ac-DDIVVC [compound 118] | 133 | –
Ac-DDIIPC [compound 113] | 56 | –
Ac-DDIVFC [compound 117] | 25 | –
Ac-DEIVPC [compound 106] | 16 | –
Ac-DDVVPC [compound 109] | 80 | –
Ac-DDIVLC [compound 116] | 16 | –
Ac-DVIVPC [compound 107] | 85 | –
Ac-DDLVPC [compound 112] | 92 | –
CCC[C@H](NC(=O)[C@@H]1C[C@@H](OCc2cccc(C)c2)CN1C(=O)[C@@H](NC(=O)[C@@H](NC(=O)[C@H](CC(=O)O)NC(=O)[C@H](CC(=O)O)NC(C)=O)[C@@H](C)CC)C(C)C)C(=O)O [compound 205] (Ac-DDIV[Hyp](mXylylene)[Nva]-OH; C-terminus assumed) | 6.7 | –

Reference: patent US6767991B1, “Hepatitis C inhibitor peptides” (priority 1997, dated 2004)
